According to patent US20250195679A1, “ANTIBODY-DRUG CONJUGATE AND USE THEREOF” (SHANGHAI HUAOTA BIOPHARMACEUTICAL CO., LTD., priority 2022, published 2025):

Columns and labels:
[1] = system: MDA-MB-231 human breast cancer cells; experiment: MDA-MB-231 triple-negative breast cancer CDX mouse efficacy model (Example 8); assay type: in vivo, NPG mice; conditions: 5 mg/kg i.p. BIW, 8 doses, FIG. 8
Protocol: NPG mice were used to establish an MDA-MB-231 triple-negative breast cancer animal model for assaying the efficacy of the test antibodies. The MDA-MB-231 human breast cancer cells used in this example were incubated in an L-15 medium supplemented with 10% FBS in an incubator at 37° C. without CO2. Before continuous cell culturing for ten generations, about 5.0×10^6 MDA-MB-231 cells were suspended in 100 μL of PBS and then mixed uniformly with an equal volume of Matrigel. The mixture was then inoculated by subcutaneous injection into NPG humanized mice on the right side of the back near the axilla, with an inoculation volume of about 200 μL. The mice were anesthetized with 2%-5% isoflurane prior to the inoculation. On the day of inoculation, 1.0×10^7 PBMCs (100 μL) were injected via the tail vein. When the tumors grew to an average size of about 50-80 mm^3, the […] tumor-bearing mice were randomly divided into 7 groups of 6 based on tumor volume and body weight. […] Oleclumab is an anti-CD73 monoclonal antibody developed by AstraZeneca, currently in Phase 2 clinical trials. The amino acid sequence of the heavy chain of 900201 is as set forth in SEQ ID NO. 43, and the amino acid sequence of the light chain of 900201 is as set forth in SEQ ID NO. 44.

[2] = system: BxPC-3 human pancreatic cancer cells; experiment: BxPC3 CDX pancreatic cancer mouse efficacy model; assay type: in vivo, NPG mice; conditions: 5 mg/kg i.p. BIW, 6 doses, FIG. 7
Protocol: NPG mice were used to establish a BxPC-3 pancreatic cancer animal model for assaying the efficacy of the test antibodies. The BxPC-3 human pancreatic cancer cells used in this example were incubated in an RPMI-1640 medium supplemented with 10% FBS in an incubator at 37° C. with 5% CO2. Before continuous cell culturing for ten generations, 100 μL of PBS containing about 1×10^7 BxPC-3 cells was mixed uniformly with an equal volume of Matrigel. The mixture was then inoculated by subcutaneous injection into 18 NPG mice on the right side of the back near the axilla, with an inoculation volume of about 200 μL. The mice were anesthetized with 2%-5% isoflurane prior to the inoculation. On the day of inoculation, 1.0×10^7 PBMCs (100 μL) were injected via the tail vein. When the tumors grew to an average size of about 50-80 mm^3, the 18 tumor-bearing mice were randomly divided into 3 groups of 6 based on tumor volume and body weight.
Oleclumab is an anti-CD73 monoclonal antibody developed by AstraZeneca, currently in Phase 2 clinical trials. Uliledlimab is an anti-CD73 monoclonal antibody developed by I-Mab Biopharma, currently in Phase 1 clinical trials. The amino acid sequence of the heavy chain of 900543 is as set forth in SEQ ID NO. 45, and the amino acid sequence of the light chain of 900543 is as set forth in SEQ ID NO. 46. […]

## 900201: negative control antibody, which does not bind to the CD73 antigen; heavy chain SEQ ID NO. 43, light chain SEQ ID NO. 44 [compound 900201, reference compound]
[1]
  inhibition of growth of MDA-MB-231 breast cancer: could not inhibit the tumor growth

## 900543: negative control antibody, which does not bind to the CD73 antigen; heavy chain SEQ ID NO. 45, light chain SEQ ID NO. 46 [compound 900543, reference compound]
[2]
  inhibition of growth of BxPC-3 pancreatic cancer: could not inhibit tumor growth
